pIC50: −log10 of the molar value. Read-outs that look alike come from different tables or passages of the source.
How the values were obtained:
[1] = test system: MDCKII-parent; experiment: MTT proliferation / drug combination assay; format: cell-based, Canine; details: Canis lupus familiaris, 48 h
Procedure: (§1) The viability MTT assay was employed in several experimental sets, including induction studies, comparative viability assays, and drug combinations. First, 1.3 × 10^4 (MDCKII sublines), 1.2 × 10^4 (A431 sublines), 1.5 × 10^4 (MCF-7), and 1.0 × 10^4 (primary NSCLC explants) cells were seeded in 96-well plates. After seeding, cells were left to refresh in incubator for 24 h. Secondly, the medium was removed, and the serial dilutions of the drugs or drug combinations were added to the cells. Next to these variants, a medium with 40% DMSO and vehicle-containing media were tested as nonviable and unaffected viability controls, respectively. After an additional 48 h of incubation, the cells were washed with 1 × PBS and then treated with 1 mg/mL MTT solution in Opti-MEM. Subsequently, cells were incubated for 60 min under standard conditions. After MTT treatment, generated formazan crystals were solubilized with DMSO for 10 min. Wavelengths of 570 nm (formazan) and 690 nm (background) were used for absorbance measurements using a microplate reader Infinite 200 Pro NanoQuant (Tecan, Männedorf, Switzerland).
(§2) In vitro cell lines (MDCKII and A431) and primary NSCLC explants were seeded (see densities above) in 96-well plates and incubated for 24 h. […] Combined cells were incubated with the tested compounds for 48 h, and subsequently, MTT assay was performed to assess cell viability as described above. Besides IC50-shift analysis, CompuSyn 3.0.1 software (ComboSyn Inc., Paramus, NJ, USA) was used for the additional analysis of obtained data. This software works with the algorithms of the combination index (CI) method of Chou–Talalay, which is frequently used for the accurate quantification of drug combinations’ outcomes. According to the CI method principle, the combination effects were separated into three categories, including synergistic (CI < 0.9), additive (CI between 0.9–1.1), or antagonistic (CI > 1.1) ones.

[2] = test system: A431-parent; experiment: MTT proliferation / drug combination assay; format: cell-based; details: Homo sapiens, 48 h
Procedure: as §1, §2

[3] = MTT proliferation / drug combination assay; format: cell-based, Canine; details: dog, MDCKII-ABCG2 cells; read-out: IC50
Procedure: as §1, §2

[4] = test system: A431-ABCG2; experiment: MTT proliferation / drug combination assay; format: cell-based; details: Homo sapiens, 48 h; read-out: IC50
Procedure: as §1, §2

SMILES: COc1cccc2c1C(=O)c1c(O)c3c(c(O)c1C2=O)C[C@@](O)(C(C)=O)C[C@@H]3O[C@H]1C[C@H](N)[C@H](O)[C@H](C)O1 [daunorubicin]
- pIC50 [1]: 6.00
- pIC50 [2]: 5.95

SMILES: O=C1c2c(O)ccc(O)c2C(=O)c2c(NCCNCCO)ccc(NCCNCCO)c21 [mitoxantrone]
- IC50 at 48 h [3]: 12.1 µM
- pIC50 ([1]; read-out: IC50): 5.83
- pIC50 [4]: 5.00
- pIC50 ([2]; read-out: IC50): 6.06

From article PMC9697930 (International Journal of Molecular Sciences, 2022)
